Source: patent publication US11040026B2, “Muscarinic M1 receptor positive allosteric modulators” (SUVEN LIFE SCIENCES LIMITED, priority 2016, dated 2021)
Where a name gives a salt, the structure may show the parent alone.

molecular target: T1, muscarinic M1 receptor (Homo sapiens, UniProt P11229); experiment: Allosteric potency EC50 for muscarinic M1 receptor (CHO pCRE-Luc reporter assay); format: cell-based; conditions: in presence of EC20 of acetylcholine; CHO cells, luciferase reporter, 4 hours
T1 sequence (P11229 1-460): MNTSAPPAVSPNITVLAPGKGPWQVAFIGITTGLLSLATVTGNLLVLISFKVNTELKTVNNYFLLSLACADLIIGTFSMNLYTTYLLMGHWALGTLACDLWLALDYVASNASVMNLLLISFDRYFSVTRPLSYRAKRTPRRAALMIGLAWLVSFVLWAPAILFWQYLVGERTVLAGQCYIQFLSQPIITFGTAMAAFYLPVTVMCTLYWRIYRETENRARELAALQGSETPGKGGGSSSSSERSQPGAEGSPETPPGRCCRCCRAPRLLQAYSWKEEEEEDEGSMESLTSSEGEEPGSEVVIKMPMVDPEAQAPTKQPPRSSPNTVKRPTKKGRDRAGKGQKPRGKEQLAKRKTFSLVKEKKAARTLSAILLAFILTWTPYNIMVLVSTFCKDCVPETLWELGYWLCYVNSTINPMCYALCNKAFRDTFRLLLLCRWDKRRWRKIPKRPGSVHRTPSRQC
Protocol: Determination of Allosteric Potency EC50 Values for Muscarinic M1 Receptor:
A stable CHO cell line expressing recombinant human Muscarinic M1 receptor and pCRE-Luc reporter system was used for cell-based assay. The assay offers a non-radioactive based approach to determine binding of a compound to GPCRs. In this specific assay, the level of intracellular cyclic AMP which is modulated by activation or inhibition of the receptor is measured. The recombinant cells harbor luciferase reporter gene under the control of cyclic AMP response element.
The above cells were grown in 96 well clear bottom white plates in Hams F12 medium containing 10% fetal bovine serum (FBS). Prior to the addition of compounds or standard agonist, cells were serum starved overnight. Increasing concentrations of test compounds were added along with EC20 of acetylcholine in OptiMEM medium to the cells. The incubation was continued at 37° C. in CO2 incubator for 4 hours. Medium was removed and cells were washed with phosphate buffered saline. The cells were lysed and luciferase activity was measured in a Luminometer. Luminescence units were plotted against the compound concentrations using Graphpad software. EC50 values of the compounds were defined as the concentration required in stimulating the luciferase activity by 50% in presence of EC20 of acetylcholine and the results are provided in table 1.

EC50 | SMILES
0.136 µM | O=C(N[C@@H]1CCOC[C@H]1O)c1cc(Cc2ccc(F)cc2)c2c(n1)OCCO2 (single isomer, unassigned) [Example 113, trans-N-(3-Hydroxytetrahydropyran-4-yl)-8-(4-fluorobenzyl)-2,3-dihydro-[1,4]dioxino[2,3-b]pyridine-6-carboxamide (Isomer-IT)]
1.57 µM | Cc1ccc(Cc2cc(C(=O)N[C@H]3CCCC[C@@H]3O)nc3c2ccn3C)cn1 [Example 9, N-[(1S,2S)-2-Hydroxycyclohexyl]-4-(2-methylpyridin-5-ylmethyl)-1-methyl-1H-pyrrolo[2,3-b]pyridine-6-carboxamide]
0.977 µM | Cn1ccc2c(Cc3ccc(F)nc3)cc(C(=O)N[C@H]3CCCC[C@@H]3O)nc21 [Example 3, N-[(1S,2S)-2-Hydroxycyclohexyl]-4-(2-fluoropyridin-5-ylmethyl)-1-methyl-1H-pyrrolo[2,3-b]pyridine-6-carboxamide]
0.038 µM | Cn1cc(-c2ccc(Cc3cc(C(=O)NC4CCOCC4O)nc4c3ccn4C)cc2)cn1 (racemic) [Example 56, Racemic trans-N-(3-Hydroxytetrahydropyran-4-yl)-4-[4-(1-methyl-1H-pyrazol-4-yl)benzyl]-1-methyl-1H-pyrrolo[2,3-b]pyridine-6-carboxamide]
0.342 µM | COc1ccc(Cc2cc(C(=O)N[C@H]3CCCC[C@@H]3O)nc3c2CCN3C)cc1 [Example 77, N-[(1S,2S)-2-Hydroxycyclohexyl]-4-(4-methoxybenzyl)-1-methyl-2,3-dihydro-1H-pyrrolo[2,3-b]pyridine-6-carboxamide]
0.834 µM | Cn1ccc2c(Cc3ccc(-c4cscn4)cc3)cc(C(=O)NCC(C)(C)O)nc21 [Example 24, N-(2-Hydroxy-2-methylpropyl)-4-[4-(thiazol-4-yl)benzyl]-1-methyl-1H-pyrrol[2,3-b]pyridine-6-carboxamide]
0.764 µM | Cn1ccc2c(Cc3ccc(-c4cscn4)cc3)cc(C(=O)N[C@@H]3CCOC[C@H]3O)nc21 (single isomer, unassigned; isomer-i) [Example 54, trans-N-(3-Hydroxytetrahydropyran-4-yl)-4-[4-(thiazol-4-yl)benzyl]-1-methyl-1H-pyrrolo[2,3-b]pyridine-6-carboxamide (Isomer-I)]
0.015 µM | CN1CCOc2c(Cc3ccc(-n4cccn4)cc3)cc(C(=O)N[C@H]3CCCC[C@@H]3O)nc21 [Example 129, N-[(1S,2S)-2-Hydroxycyclohexyl]-8-[4-pyrazol-1-ylbenzyl]-4-methyl-2H-pyrido[3,2-b][1,4]oxazine-6-carboxamide]
0.231 µM | COc1ccc(Cc2cc(C(=O)N[C@H]3CCCC[C@@H]3O)nc3c2OCCO3)cc1 [Example 104, N-[(1S,2S)-2-Hydroxycyclohexyl]-8-(4-methoxybenzyl)-2,3-dihydro-[1,4]dioxino[2,3-b]pyridine-6-carboxamide]
0.486 µM | Cn1ccc2c(Cc3ccc(F)cc3)cc(C(=O)N[C@@H]3CCOC[C@H]3O)nc21 (racemic) [Example 32, Racemic trans-N-(3-Hydroxytetrahydropyran-4-yl)-4-(4-fluorobenzyl)-1-methyl-1H-pyrrolo[2,3-b]pyridine-6-carboxamide]
2.29 µM | Cn1ccc2c(Cc3ccc(F)c(F)c3)cc(C(=O)N[C@H]3CCOC[C@H]3O)nc21 (single isomer, unassigned; isomer-ii) [Example 42, cis-N-(3-Hydroxytetrahydropyran-4-yl)-4-(3,4-difluorobenzyl)-1-methyl-1H-pyrrolo[2,3-b]pyridine-6-carboxamide (Isomer-II)]
0.031 µM | Cn1ccc2c(Cc3ccc(-c4cscn4)cc3)cc(C(=O)NC3CCOCC3O)nc21 (racemic) [Example 53, Racemic trans-N-(3-Hydroxytetrahydropyran-4-yl)-4-[4-(thiazol-4-yl)benzyl]-1-methyl-1H-pyrrolo[2,3-b]pyridine-6-carboxamide]
0.018 µM | Cn1cc(-c2ccc(Cc3cc(C(=O)N[C@H]4CCCC[C@@H]4O)nc4c3CCNC4)cc2)cn1 [Example 90, N-[(1S,2S)-2-Hydroxycyclohexyl]-4-[4-(1-methyl-1H-pyrazol-4-yl)-benzyl-5,6,7,8-tetrahydro[1,7]naphthyridine-2-carboxamide Hydrochloride]
0.748 µM | Cn1ccc2c(Cc3cccc(F)c3F)cc(C(=O)N[C@@H]3CCOC[C@H]3O)nc21 (single isomer, unassigned; isomer-ii) [Example 44, trans-N-(3-Hydroxytetrahydropyran-4-yl)-4-(2,3-difluorobenzyl)-1-methyl-1H-pyrrolo[2,3-b]pyridine-6-carboxamide (Isomer-II)]
0.014 µM | Cn1cc(-c2ccc(Cc3cc(C(=O)N[C@H]4CCCC[C@@H]4O)nc4c3OCCO4)cc2)cn1 [Example 106, N-[(1S,2S)-2-Hydroxycyclohexyl]-8-[4-(1-methyl-1H-pyrazol-4-yl)-benzyl]-2,3-dihydro-[1,4]dioxino[2,3-b]pyridine-6-carboxamide]
1.47 µM | Cn1ccc2c(Cc3ccc(F)cc3)cc(C(=O)N[C@@H]3CCOC[C@@H]3O)nc21 (racemic) [Example 35, Racemic cis-N-(3-Hydroxytetrahydropyran-4-yl)-4-(4-fluorobenzyl)-1-methyl-H-pyrrolo[2,3-b]pyridine-6-carboxamide]
2.96 µM | Cn1ccc2c(Cc3ccnc(F)c3)cc(C(=O)N[C@H]3CCOC[C@H]3O)nc21 (single isomer, unassigned; isomer-i) [Example 46, cis-N-(3-Hydroxytetrahydropyran-4-yl)-4-(2-fluoropyridin-4-ylmethyl)-1-methyl-1H-pyrrolo[2,3-b]pyridine-6-carboxamide (Isomer-I)]
1.72 µM | Cn1ccc2c(Cc3cc(F)ncc3F)cc(C(=O)N[C@H]3CCCC[C@@H]3O)nc21 [Example 11, N-[(1S,2S)-2-Hydroxycyclohexyl]-4-(2,5-difluoropyridin-4-ylmethyl)-1-methyl-1H-pyrrolo[2,3-b]pyridine-6-carboxamide]
0.222 µM | COc1ccc(Cc2cc(C(=O)N[C@@H]3CCOC[C@H]3O)nc3c2ccn3C)cc1 (single isomer, unassigned; isomer-ii) [Example 61, trans-N-(3-Hydroxytetrahydropyran-4-yl)-4-(4-methoxybenzyl)-1-methyl-1H-pyrrolo[2,3-b]pyridine-6-carboxamide (Isomer-II)]
2.53 µM | Cn1ccc2c(Cc3cccc(F)c3F)cc(C(=O)N[C@@H]3CCOC[C@H]3O)nc21 (single isomer, unassigned; isomer-i) [Example 43, trans-N-(3-Hydroxytetrahydropyran-4-yl)-4-(2,3-difluorobenzyl)-1-methyl-1H-pyrrolo[2,3-b]pyridine-6-carboxamide (Isomer-I)]
0.109 µM | O=C(N[C@@H]1CCOC[C@H]1O)c1cc(Cc2ccc(F)cc2)c2c(n1)CNCC2 (single isomer, unassigned; isomer-ii) [Example 98, trans-N-(3-Hydroxytetrahydropyran-4-yl)-4-(4-fluorobenzyl)-5,6,7,8-tetrahydro[1,7]naphthyridine-2-carboxamide Hydrochloride (Isomer-II)]
0.38 µM | CN1CCc2c(Cc3ccc(F)cc3)cc(C(=O)N[C@H]3CCCC[C@@H]3O)nc21 [Example 76, N-[(1S,2S)-2-Hydroxycyclohexyl]-4-(4-fluorobenzyl)-1-methyl-2,3-dihydro-1H-pyrrolo[2,3-b]pyridine-6-carboxamide]
1.25 µM | Cn1ccc2c(Cc3ccc(F)cc3)cc(C(=O)N[C@H]3CCOC[C@H]3O)nc21 (single isomer, unassigned; isomer-ii) [Example 37, cis-N-(3-Hydroxytetrahydropyran-4-yl)-4-(4-fluorobenzyl)-1-methyl-1H-pyrrolo[2,3-b]pyridine-6-carboxamide (Isomer-II)]
3.17 µM | Cn1ccc2c(Cc3ccc(F)cc3)cc(C(=O)N[C@H]3CCOC[C@H]3O)nc21 (single isomer, unassigned; isomer-i) [Example 36, cis-N-(3-Hydroxytetrahydropyran-4-yl)-4-(4-fluorobenzyl)-1-methyl-1H-pyrrolo[2,3-b]pyridine-6-carboxamide (Isomer-I)]
0.811 µM | Cn1ccc2c(Cc3ccc(F)cc3)cc(C(=O)N[C@H]3CCCC[C@@H]3O)nc21 [Example 4, N-[(1S,2S)-2-Hydroxycyclohexyl]-4-(4-fluorobenzyl)-1-methyl-1H-pyrrolo[2,3-b]pyridine-6-carboxamide]
1.29 µM | Cn1ccc2c(Cc3cccc(F)c3F)cc(C(=O)N[C@H]3CCCC[C@@H]3O)nc21 [Example 16, N-[(1S,2S)-2-Hydroxycyclohexyl]-4-(2,3-difluorobenzyl)-1-methyl-1H-pyrrolo[2,3-b]pyridine-6-carboxamide]
